The values that follow come from the supplement of paper PMC11061612.

Common to all, as to experiment: Bliss excess, mean over the matrix (fraction); higher = more synergy
One assay relates to 8-MG-BA (Glioblastoma). In a few lines:
(§1)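 After 24 hours at 37°C and 5% CO2 in 1536-well plates, cells in DMEM/F12 or RPMI plus 10% FBS received two-drug dose matrices for 72 hours. Viability came from CellTiter-Glo 2.0 luminescence and was scaled as inhibition, anchored at 0 by vehicle wells and at 1 by blank wells. Combination Emax is taken as the second-highest inhibition in the matrix, and Bliss excess as the observed combination effect less EA + EB − EA·EB, with EA and EB the single-agent effects.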

In a further assay the test system is ARH-77 (Non-Cancerous). The procedure, abridged:
as §1

The next assay concerns GI-ME-N (Neuroblastoma). In a few lines:
as §1

Assay [1] relates to NCI-H1693 (Lung Adenocarcinoma). The procedure, abridged:
as §1

Assay [2] relates to PANC-10-05 (Pancreatic Carcinoma). The procedure, abridged: as §1
The test system of another assay is U-2-OS (Osteosarcoma). In a few lines:
as §1

For the compound `NC1(C(=O)N[C@@H](CCO)c2ccc(Cl)cc2)CCN(c2ncnc3[nH]ccc23)CC1` [Capivasertib] + COc1nnc2ccc(N3CCC(c4ccc(OCCN5CCN(C)C(=O)[C@H]5C)cc4)CC3)nn12 [AZD5153] (first compound max 10 µM, 7x7, partner max 1 µM), the Bliss excess was -0.0338 in the assay on 8-MG-BA (Glioblastoma); -0.0253 with ARH-77 (Non-Cancerous); -0.0309 in the assay on GI-ME-N (Neuroblastoma); -0.0062 in assay [1]; -0.0114 in assay [2]; 0.0156 with U-2-OS (Osteosarcoma).

On to `NC1(C(=O)N[C@@H](CCO)c2ccc(Cl)cc2)CCN(c2ncnc3[nH]ccc23)CC1` [Capivasertib] + C[C@@H]1COCCN1C2=NC(=NC(=C2)C3(CC3)[S@](=N)(=O)C)C4=C5C=CNC5=NC=C4 [AZD6738] (first compound max 10 µM, 7x7, partner max 10 µM), for which the Bliss excess in the assay on 8-MG-BA (Glioblastoma) is -0.004; with ARH-77 (Non-Cancerous) it was -0.0375; in the assay with GI-ME-N (Neuroblastoma), -0.0269; in assay [1] it was -0.0526; in assay [2], -0.0946; with U-2-OS (Osteosarcoma), -0.0326.

With `NC1(C(=O)N[C@@H](CCO)c2ccc(Cl)cc2)CCN(c2ncnc3[nH]ccc23)CC1` [Capivasertib] + Cn1cnc2c(F)c(Nc3ccc(Br)cc3Cl)c(C(=O)NOCCO)cc21 [Selumetinib] (first compound max 10 µM, 7x7, partner max 10 µM), the Bliss excess in the assay on 8-MG-BA (Glioblastoma) is 0.0362; in the assay on ARH-77 (Non-Cancerous) it was 0.0614; in the assay with GI-ME-N (Neuroblastoma), -0.0544; in assay [1], -0.0375; in assay [2] it was 0.0147; with U-2-OS (Osteosarcoma), 0.0009.

In the case of `Cc1nc(Nc2ncc(C(=O)Nc3c(C)cccc3Cl)s2)cc(N2CCN(CCO)CC2)n1` [Dasatinib] + CC(=O)Nc1cccc(-n2c(=O)n(C3CC3)c(=O)c3c(Nc4ccc(I)cc4F)n(C)c(=O)c(C)c32)c1 [Trametinib] (first compound max 2 µM, 7x7, partner max 1 µM), the Bliss excess is 0.0219 in the assay with 8-MG-BA (Glioblastoma); -0.0311 in the assay with ARH-77 (Non-Cancerous); -0.0849 in the assay on GI-ME-N (Neuroblastoma); 0.0432 in assay [1]; 0.0735 in assay [2]; -0.0411 in the assay on U-2-OS (Osteosarcoma).

Turning to `COc1cccc2c1C(=O)c1c(O)c3c(c(O)c1C2=O)C[C@@](O)(C(=O)CO)C[C@@H]3O[C@H]1C[C@H](N)[C@H](O)[C@H](C)O1` [Doxorubicin] + Cc1cc2ncnn2cc1Nc1ncc2c(n1)n(C1CCOCC1)c(=O)n2C [AZD7648] (first compound max 1 µM, 7x7, partner max 10 µM), the Bliss excess was 0.0675 with 8-MG-BA (Glioblastoma); 0.0783 in the assay on ARH-77 (Non-Cancerous); 0.0207 with GI-ME-N (Neuroblastoma); 0.036 in assay [1]; -0.0557 in assay [2]; 0.0234 in the assay with U-2-OS (Osteosarcoma).

Regarding `COc1cc2ncnc(Nc3ccc(F)c(Cl)c3)c2cc1OCCCN1CCOCC1` [Gefitinib] + CC(C)n1c(=O)n(C)c2cnc3cc(F)c(-c4ccc(OCCCN5CCCCC5)nc4)cc3c21 [AZD1390] (first compound max 10 µM, 7x7, partner max 0.3 µM), the Bliss excess in the assay with 8-MG-BA (Glioblastoma) is -0.0604; in the assay with ARH-77 (Non-Cancerous), -0.0785; in the assay with GI-ME-N (Neuroblastoma), -0.0827; in assay [1] it was -0.04; in assay [2], -0.0835; with U-2-OS (Osteosarcoma) it was -0.0496.

On to `CS(=O)(=O)CCNCc1ccc(-c2ccc3ncnc(Nc4ccc(OCc5cccc(F)c5)c(Cl)c4)c3c2)o1` [Lapatinib] + C[C@@H](Oc1cc(-c2cnn(C3CCNCC3)c2)cnc1N)c1c(Cl)ccc(F)c1Cl [Crizotinib] (first compound max 10 µM, 7x7, partner max 10 µM), for which the Bliss excess is -0.0365 in the assay with 8-MG-BA (Glioblastoma); -0.0445 in the assay on ARH-77 (Non-Cancerous); -0.0505 with GI-ME-N (Neuroblastoma); -0.0069 in assay [1]; -0.109 in assay [2]; -0.0263 in the assay on U-2-OS (Osteosarcoma).

Regarding `CC(=O)c1c(C)c2cnc(Nc3ccc(N4CCNCC4)cn3)nc2n(C2CCCC2)c1=O` [Palbociclib] + CC1(C)CCC(CN2CCN(c3ccc(C(=O)NS(=O)(=O)c4ccc(NCC5CCOCC5)c([N+](=O)[O-])c4)c(Oc4cnc5[nH]ccc5c4)c3)CC2)=C(c2ccc(Cl)cc2)C1 [Venetoclax] (first compound max 10 µM, 7x7, partner max 1 µM), the Bliss excess in the assay with 8-MG-BA (Glioblastoma) is 0.0049; with ARH-77 (Non-Cancerous), 0.0762; in the assay with GI-ME-N (Neuroblastoma) it was -0.0514; in assay [1], 0.0079; in assay [2], -0.107; with U-2-OS (Osteosarcoma), -0.0275.

Consider `CC(=O)c1c(C)c2cnc(Nc3ccc(N4CCNCC4)cn3)nc2n(C2CCCC2)c1=O` [Palbociclib] + Cc1c2c(nn1C)CSCc1cc(n(C)n1)CSc1cc(c3ccccc3c1)OCCCc1c(C(=O)O)n(C)c3c-2c(Cl)ccc13 [AZD5991] (first compound max 10 µM, 7x7, partner max 1 µM), for which the Bliss excess in the assay on 8-MG-BA (Glioblastoma) was -0.0424; in the assay on ARH-77 (Non-Cancerous), -0.0248; with GI-ME-N (Neuroblastoma), -0.0873; in assay [1], -0.0168; in assay [2], -0.0768; in the assay with U-2-OS (Osteosarcoma) it was -0.0224.

Consider `CC(=O)c1c(C)c2cnc(Nc3ccc(N4CCNCC4)cn3)nc2n(C2CCCC2)c1=O` [Palbociclib] + Cn1cnc2c(F)c(Nc3ccc(Br)cc3Cl)c(C(=O)NOCCO)cc21 [Selumetinib] (first compound max 10 µM, 7x7, partner max 10 µM), for which the Bliss excess is -0.0061 in the assay with 8-MG-BA (Glioblastoma); -0.0147 in the assay with ARH-77 (Non-Cancerous); -0.0012 with GI-ME-N (Neuroblastoma); -0.0306 in assay [1]; -0.0409 in assay [2]; -0.0134 in the assay with U-2-OS (Osteosarcoma).

With `COc1cccc(OCCCN)c1-c1cc(Nc2cnc(C#N)cn2)n[nH]1` [Prexasertib] + C=CCn1c(=O)c2cnc(Nc3ccc(N4CCN(C)CC4)cc3)nc2n1-c1cccc(C(C)(C)O)n1 [AZD1775] (first compound max 1 µM, partner max 1 µM), the Bliss excess was 0.0358 in the assay on 8-MG-BA (Glioblastoma); 0.0493 in the assay with ARH-77 (Non-Cancerous); 0.0161 in the assay on GI-ME-N (Neuroblastoma); -0.0139 in assay [1]; -0.0342 in assay [2]; 0.0506 in the assay on U-2-OS (Osteosarcoma).

As for `COc1cccc(OCCCN)c1-c1cc(Nc2cnc(C#N)cn2)n[nH]1` [Prexasertib] + CCc1c2c(nc3ccc(O)cc13)-c1cc3c(c(=O)n1C2)COC(=O)[C@]3(O)CC [SN-38] (first compound max 1 µM, 7x7, partner max 0.3 µM), the Bliss excess in the assay on 8-MG-BA (Glioblastoma) was -0.0166; with ARH-77 (Non-Cancerous), -0.0304; with GI-ME-N (Neuroblastoma) it was -0.0326; in assay [1], 0.0166; in assay [2], -0.0372; with U-2-OS (Osteosarcoma), -0.0551.

For `COc1cccc(OCCCN)c1-c1cc(Nc2cnc(C#N)cn2)n[nH]1` [Prexasertib] + CN(C)CCCOc1ccc(-c2ccc3ncc4c(c3c2)n(C2CCOCC2)c(=O)n4C)cn1 [AZD0156] (first compound max 1 µM, 7x7, partner max 1 µM), the Bliss excess is -0.0349 in the assay with 8-MG-BA (Glioblastoma); 0.0018 with ARH-77 (Non-Cancerous); 0.0737 with GI-ME-N (Neuroblastoma); -0.0349 in assay [1]; -0.0435 in assay [2]; 0.0176 with U-2-OS (Osteosarcoma).
